Numbers after ± are expanded uncertainties.
Test: xn = mol fraction of the nth substance listed
Settings: Pycnometric method

CC1COC(=O)O1 (configuration not stated) [4-methyl-1,3-dioxolan-2-one] + O=C=O
Settings	mass density [kg/m3]
313 K, 2000 kPa, Gas, x2 = 0.9953	47.6 ± 16
313 K, 2000 kPa, Liquid, x2 = 0.2593	1170 ± 44
313 K, 3000 kPa, Gas, x2 = 0.9895	73 ± 16
313 K, 3000 kPa, Liquid, x2 = 0.3384	1170 ± 44
313 K, 4000 kPa, Gas, x2 = 0.9864	97.2 ± 16
313 K, 4000 kPa, Liquid, x2 = 0.4022	1160 ± 44
313 K, 5000 kPa, Gas, x2 = 0.9894	136.8 ± 16
313 K, 5000 kPa, Liquid, x2 = 0.4548	1164.8 ± 44
313 K, 6000 kPa, Gas, x2 = 0.9963	170.5 ± 16
313 K, 6000 kPa, Liquid, x2 = 0.4919	1156 ± 44
313 K, 7000 kPa, Gas, x2 = 0.99	224.7 ± 16
313 K, 7000 kPa, Liquid, x2 = 0.542	1141.4 ± 43
313 K, 8000 kPa, Gas, x2 = 0.99	244 ± 16
313 K, 8000 kPa, Liquid, x2 = 0.5706	1129.7 ± 43
313 K, 9000 kPa, Gas, x2 = 0.9907	276.7 ± 16
313 K, 9000 kPa, Liquid, x2 = 0.6169	1109.2 ± 42
313 K, 10000 kPa, Gas, x2 = 0.9841	339.9 ± 18
313 K, 10000 kPa, Liquid, x2 = 0.6579	1089.3 ± 41
313 K, 11000 kPa, Gas, x2 = 0.9866	366.2 ± 16
313 K, 11000 kPa, Liquid, x2 = 0.6915	1073 ± 41
313 K, 12000 kPa, Gas, x2 = 0.9694	390.8 ± 16
313 K, 12000 kPa, Liquid, x2 = 0.7279	1046.6 ± 49
333 K, 3000 kPa, Gas, x2 = 0.9942	52 ± 16
333 K, 3000 kPa, Liquid, x2 = 0.2425	1090.7 ± 42
333 K, 4000 kPa, Gas, x2 = 0.9968	77.8 ± 18
333 K, 4000 kPa, Liquid, x2 = 0.2787	1096.7 ± 42
333 K, 5000 kPa, Gas, x2 = 0.9922	100.2 ± 18
333 K, 5000 kPa, Liquid, x2 = 0.3272	1106.7 ± 42
333 K, 6000 kPa, Gas, x2 = 0.9862	116.8 ± 16
333 K, 6000 kPa, Liquid, x2 = 0.3723	1105.7 ± 42
333 K, 7000 kPa, Gas, x2 = 0.9885	147.9 ± 17
333 K, 7000 kPa, Liquid, x2 = 0.4079	1109.2 ± 42
333 K, 8000 kPa, Gas, x2 = 0.9898	174.5 ± 19
333 K, 8000 kPa, Liquid, x2 = 0.4512	1110.2 ± 42
333 K, 9000 kPa, Gas, x2 = 0.984	199.6 ± 16
333 K, 9000 kPa, Liquid, x2 = 0.4846	1102.2 ± 42
333 K, 10000 kPa, Gas, x2 = 0.9855	230.2 ± 19
333 K, 10000 kPa, Liquid, x2 = 0.5244	1091.2 ± 42
333 K, 11000 kPa, Gas, x2 = 0.9812	271.3 ± 17
333 K, 11000 kPa, Liquid, x2 = 0.5725	1077.1 ± 41
333 K, 12000 kPa, Gas, x2 = 0.9888	326.5 ± 17
333 K, 12000 kPa, Liquid, x2 = 0.6065	1061.1 ± 40
333 K, 13000 kPa, Gas, x2 = 0.9883	411.2 ± 18
333 K, 13000 kPa, Liquid, x2 = 0.6246	1052.5 ± 40
353 K, 1000 kPa, Gas, x2 = 0.952	18.6
353 K, 1000 kPa, Liquid, x2 = 0.081	1011 ± 38
353 K, 2000 kPa, Gas, x2 = 0.9663	32.2
353 K, 2000 kPa, Liquid, x2 = 0.115	1024.5 ± 39
353 K, 3000 kPa, Gas, x2 = 0.9679	50.9 ± 16
353 K, 3000 kPa, Liquid, x2 = 0.1518	1030 ± 39
353 K, 4000 kPa, Gas, x2 = 0.9679	68.5 ± 16
353 K, 4000 kPa, Liquid, x2 = 0.196	1040.8 ± 40
353 K, 5000 kPa, Gas, x2 = 0.9591	84.4 ± 16
353 K, 5000 kPa, Liquid, x2 = 0.2317	1044.3 ± 40
353 K, 6000 kPa, Gas, x2 = 0.9866	100 ± 16
353 K, 6000 kPa, Liquid, x2 = 0.2852	1054.8 ± 40
353 K, 7000 kPa, Gas, x2 = 0.9836	115 ± 16
353 K, 7000 kPa, Liquid, x2 = 0.3205	1062.4 ± 40
353 K, 8000 kPa, Gas, x2 = 0.9922	164.5 ± 16
353 K, 8000 kPa, Liquid, x2 = 0.351	1050 ± 40
353 K, 9000 kPa, Gas, x2 = 0.9891	206 ± 16
353 K, 9000 kPa, Liquid, x2 = 0.3881	1048.4 ± 40
353 K, 10000 kPa, Gas, x2 = 0.9709	224.7 ± 17
353 K, 10000 kPa, Liquid, x2 = 0.4112	1035.5 ± 39
353 K, 11000 kPa, Gas, x2 = 0.9779	250 ± 16
353 K, 11000 kPa, Liquid, x2 = 0.4485	997.5 ± 38
353 K, 12000 kPa, Gas, x2 = 0.9719	300 ± 16
353 K, 12000 kPa, Liquid, x2 = 0.492	970.4 ± 37
353 K, 13000 kPa, Gas, x2 = 0.9842	320 ± 16
353 K, 13000 kPa, Liquid, x2 = 0.5225	951.1 ± 36
373 K, 3000 kPa, Gas, x2 = 0.9747	40 ± 16
373 K, 3000 kPa, Liquid, x2 = 0.1384	1000 ± 38
373 K, 4000 kPa, Gas, x2 = 0.9779	60.5 ± 16
373 K, 4000 kPa, Liquid, x2 = 0.1638	1004.9 ± 38
373 K, 5000 kPa, Gas, x2 = 0.98	82.7 ± 16
373 K, 5000 kPa, Liquid, x2 = 0.2031	1005.4 ± 38
373 K, 6000 kPa, Gas, x2 = 0.9802	95.9 ± 16
373 K, 6000 kPa, Liquid, x2 = 0.2367	1011.5 ± 39
373 K, 7000 kPa, Gas, x2 = 0.9784	125.9 ± 16
373 K, 7000 kPa, Liquid, x2 = 0.2692	1000 ± 38
373 K, 8000 kPa, Gas, x2 = 0.9795	149.8 ± 16
373 K, 8000 kPa, Liquid, x2 = 0.2948	988.9 ± 38
373 K, 9000 kPa, Gas, x2 = 0.9782	158 ± 18
373 K, 9000 kPa, Liquid, x2 = 0.3268	980.9 ± 37
373 K, 10000 kPa, Gas, x2 = 0.9847	181 ± 16
373 K, 10000 kPa, Liquid, x2 = 0.3403	960.8 ± 36
373 K, 11000 kPa, Gas, x2 = 0.9806	226.8 ± 21
373 K, 11000 kPa, Liquid, x2 = 0.3805	940.7 ± 36
373 K, 12000 kPa, Gas, x2 = 0.9848	241.7 ± 18
373 K, 12000 kPa, Liquid, x2 = 0.39	935.1 ± 36
373 K, 13000 kPa, Gas, x2 = 0.9844	264.9 ± 16
373 K, 13000 kPa, Liquid, x2 = 0.4136	931.2 ± 35

CCCC(=O)OCC [ethyl butanoate] + O=C=O
Settings	mass density [kg/m3]
313 K, 2000 kPa, Gas, x2 = 0.9978	39.4 ± 16
313 K, 2000 kPa, Liquid, x2 = 0.3795	919.1 ± 35
313 K, 3000 kPa, Gas, x2 = 0.9926	61.3 ± 17
313 K, 3000 kPa, Liquid, x2 = 0.4919	901 ± 34
313 K, 4000 kPa, Gas, x2 = 0.9951	96.8 ± 16
313 K, 4000 kPa, Liquid, x2 = 0.6053	867.6 ± 33
313 K, 5000 kPa, Gas, x2 = 0.9938	141.2 ± 16
313 K, 5000 kPa, Liquid, x2 = 0.7204	841.3 ± 32
313 K, 6000 kPa, Gas, x2 = 0.9941	222.9 ± 17
313 K, 6000 kPa, Liquid, x2 = 0.8124	813.8 ± 31
313 K, 7000 kPa, Gas, x2 = 0.9888	300 ± 17
313 K, 7000 kPa, Liquid, x2 = 0.8876	789.8 ± 30
313 K, 8000 kPa, Gas, x2 = 0.9616	450 ± 18
313 K, 8000 kPa, Liquid, x2 = 0.9495	744.8 ± 28
333 K, 2000 kPa, Gas, x2 = 0.967	38.2 ± 16
333 K, 2000 kPa, Liquid, x2 = 0.3088	801.5 ± 30
333 K, 3000 kPa, Gas, x2 = 0.9751	57 ± 16
333 K, 3000 kPa, Liquid, x2 = 0.3978	806.9 ± 31
333 K, 4000 kPa, Gas, x2 = 0.9726	82.4 ± 16
333 K, 4000 kPa, Liquid, x2 = 0.491	804.4 ± 31
333 K, 5000 kPa, Gas, x2 = 0.9713	120.5 ± 16
333 K, 5000 kPa, Liquid, x2 = 0.5707	786.8 ± 30
333 K, 6000 kPa, Gas, x2 = 0.9709	164.2 ± 16
333 K, 6000 kPa, Liquid, x2 = 0.6514	781.3 ± 30
333 K, 7000 kPa, Gas, x2 = 0.9706	258.1 ± 16
333 K, 7000 kPa, Liquid, x2 = 0.7285	752.2 ± 29
333 K, 8000 kPa, Gas, x2 = 0.9716	298.4 ± 17
333 K, 8000 kPa, Liquid, x2 = 0.8105	726.6 ± 28
333 K, 9000 kPa, Gas, x2 = 0.9541	375.1 ± 16
333 K, 9000 kPa, Liquid, x2 = 0.8711	692 ± 26
333 K, 10000 kPa, Gas, x2 = 0.92	426.5 ± 16
333 K, 10000 kPa, Liquid, x2 = 0.9039	670 ± 26
353 K, 2000 kPa, Gas, x2 = 0.9121	34.5 ± 16
353 K, 2000 kPa, Liquid, x2 = 0.2195	762.9 ± 29
353 K, 3000 kPa, Gas, x2 = 0.9126	46.2 ± 16
353 K, 3000 kPa, Liquid, x2 = 0.2919	764.7 ± 29
353 K, 4000 kPa, Gas, x2 = 0.9151	68.5 ± 16
353 K, 4000 kPa, Liquid, x2 = 0.356	765.8 ± 29
353 K, 5000 kPa, Gas, x2 = 0.9166	106.5 ± 17
353 K, 5000 kPa, Liquid, x2 = 0.4259	758.8 ± 29
353 K, 6000 kPa, Gas, x2 = 0.9166	150.4 ± 17
353 K, 6000 kPa, Liquid, x2 = 0.4863	753 ± 29
353 K, 7000 kPa, Gas, x2 = 0.9189	215.9 ± 16
353 K, 7000 kPa, Liquid, x2 = 0.5364	734.8 ± 28
353 K, 8000 kPa, Gas, x2 = 0.9142	258 ± 16
353 K, 8000 kPa, Liquid, x2 = 0.5983	719.6 ± 28
353 K, 9000 kPa, Gas, x2 = 0.9127	308.3 ± 16
353 K, 9000 kPa, Liquid, x2 = 0.6685	685.1 ± 29
353 K, 10000 kPa, Gas, x2 = 0.91	331.7 ± 16
353 K, 10000 kPa, Liquid, x2 = 0.7399	655.8 ± 26
353 K, 11000 kPa, Gas, x2 = 0.89	375 ± 16
353 K, 11000 kPa, Liquid, x2 = 0.8222	655.2 ± 25
373 K, 2000 kPa, Gas, x2 = 0.867	30.6
373 K, 2000 kPa, Liquid, x2 = 0.18	627.3 ± 24
373 K, 3000 kPa, Gas, x2 = 0.8751	45.1 ± 16
373 K, 3000 kPa, Liquid, x2 = 0.2406	665.4 ± 27
373 K, 4000 kPa, Gas, x2 = 0.8726	64.7 ± 27
373 K, 4000 kPa, Liquid, x2 = 0.3086	675.5 ± 26
373 K, 5000 kPa, Gas, x2 = 0.8713	96.5 ± 17
373 K, 5000 kPa, Liquid, x2 = 0.3859	686.5 ± 26
373 K, 6000 kPa, Gas, x2 = 0.8709	126.4
373 K, 6000 kPa, Liquid, x2 = 0.4129	675 ± 26
373 K, 7000 kPa, Gas, x2 = 0.8706	171 ± 16
373 K, 7000 kPa, Liquid, x2 = 0.4862	659.4 ± 25
373 K, 8000 kPa, Gas, x2 = 0.8716	201.1 ± 16
373 K, 8000 kPa, Liquid, x2 = 0.5222	647.4 ± 25
373 K, 9000 kPa, Gas, x2 = 0.8766	233.2 ± 16
373 K, 9000 kPa, Liquid, x2 = 0.5764	639.9 ± 24
373 K, 10000 kPa, Gas, x2 = 0.856	259.8 ± 16
373 K, 10000 kPa, Liquid, x2 = 0.6256	628.8 ± 24

From the NIST ThermoML archive (doi:10.1021/je101086r)
